Source: ChEMBL document CHEMBL2385040, “Synthesis and antiproliferative activity of 4-substituted-piperazine-1-carbodithioate derivatives of 2,4-diaminoquinazoline” (Eur J Med Chem, 2013)
Calls of active or inactive are those of the source. The calls are words filed in the database; no cut-off is given here.

Tests used:
[1] = test system: MCF7; test: cells; details: Homo sapiens, MCF7, 72 h
[2] = test system: A549; test: Antiproliferative activity against human A549 cells at 20 uM after 72 hrs by MTT assay relative to control; assay type: functional, cell-based; details: A549, 72 h
[3] = test system: HCT-116; test: Antiproliferative activity against human HCT116 cells at 20 uM after 72 hrs by MTT assay relative to control; assay type: functional, cell-based; details: HCT-116, 72 h
[4] = test system: HT-29; test: Antiproliferative activity against human HT-29 cells at 20 uM after 72 hrs by MTT assay relative to control; assay type: functional, cell-based; details: HT-29, 72 h
[5] = test system: HeLa; test: Antiproliferative activity against human HeLa cells at 20 uM after 72 hrs by MTT assay relative to control; assay type: functional, cell-based
[6] = test system: HCT-116; test: Antiproliferative activity against human HCT116 cells after 72 hrs by MTT assay; assay type: functional, cell-based; details: HCT-116, 72 h
[7] = test system: A549; test: cells; details: Homo sapiens, A549, 72 h
Description: Antiproliferative activity against human A549 cells after 72 hrs by MTT assay

[8] = test system: HeLa; test: Antiproliferative activity against human HeLa cells after 72 hrs by MTT assay; assay type: functional, cell-based
[9] = test system: HT-29; test: cells; details: Homo sapiens, HT-29, 72 h
[10] = test system: HCT-116; test: Induction of DNA damage in human HCT116 cells assessed as G2/M checkpoint activation measured as reduction in mitotic index after 2 hrs by immunofluorescence assay; assay type: functional
[11] = biological target: T1, Dihydrofolate reductase (Homo sapiens, UniProt P00374); test: Inhibition of human dihydrofolate reductase by spectrophotometric analysis
T1 sequence (P00374 whole entry): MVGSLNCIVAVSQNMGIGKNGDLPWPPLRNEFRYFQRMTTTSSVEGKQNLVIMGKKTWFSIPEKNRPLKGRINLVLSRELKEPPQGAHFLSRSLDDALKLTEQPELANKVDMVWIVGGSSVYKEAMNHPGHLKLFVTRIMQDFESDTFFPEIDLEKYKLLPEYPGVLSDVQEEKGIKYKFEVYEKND

[12] = biological target: T2, Dihydrofolate reductase (Homo sapiens) (UniProt P00374); test: Inhibition of human dihydrofolate reductase at 500 nM by spectrophotometric analysis relative to control
T2 sequence (whole entry): T1 sequence (P00374 whole entry)

[13] = test system: HCT-116; test: Induction of DNA damage in human HCT116 cells assessed as formation of marker ser-139 phosphorylated H2AX nuclear foci after 2 hrs by immunofluorescence assay; assay type: functional, cell-based
[14] = test system: HCT-116; test: Cell cycle arrest in human HCT116 cells assessed as accumulation at G0/G1 phase at IC50 after 24 hrs by propidium iodide staining-based FACS flow cytometric analysis (reference value: 63.07%); assay type: functional
[15] = test system: HCT-116; test: Cell cycle arrest in human HCT116 cells assessed as accumulation at S phase at IC50 after 24 hrs by propidium iodide staining-based FACS flow cytometric analysis (reference value: 25.39%); assay type: functional
[16] = test system: HCT-116; test: Cell cycle arrest in human HCT116 cells assessed as accumulation at G2/M phase at IC50 after 24 hrs by propidium iodide staining-based FACS flow cytometric analysis (reference value: 11.54%); assay type: functional
[17] = biological target: Thymidylate synthase (Homo sapiens) (UniProt P04818); test: Inhibition of human recombinant His-tagged thymidylate synthase assessed as N5,N10-methylenetetrahydrofolate oxidation to dihydrofolate at 50 uM after 20 mins by UV spectrophotometric analysis relative to control
[18] = test system: MCF7; test: Antiproliferative activity against human MCF7 cells at 20 uM after 72 hrs by MTT assay relative to control; assay type: functional, cell-based; details: MCF7, 72 h
[19] = biological target: Thymidylate synthase (Homo sapiens) (UniProt P04818); details: 1 uM
Description: Inhibition of human recombinant His-tagged thymidylate synthase assessed as N5,N10-methylenetetrahydrofolate oxidation to dihydrofolate at 1 uM after 20 mins by UV spectrophotometric analysis relative to control

Chain of Thymidylate synthase (Homo sapiens) (P04818 2-313 limits assumed): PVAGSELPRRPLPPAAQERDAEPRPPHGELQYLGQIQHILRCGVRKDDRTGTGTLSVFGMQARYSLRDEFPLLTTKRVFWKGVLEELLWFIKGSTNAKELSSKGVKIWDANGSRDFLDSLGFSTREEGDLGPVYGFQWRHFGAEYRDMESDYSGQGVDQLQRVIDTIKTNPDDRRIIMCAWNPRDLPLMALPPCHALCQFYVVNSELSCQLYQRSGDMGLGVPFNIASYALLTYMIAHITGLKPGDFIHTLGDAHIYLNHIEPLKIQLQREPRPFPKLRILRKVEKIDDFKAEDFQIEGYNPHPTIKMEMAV

SMILES | IC50 [1] [µM] | IC50 [6] [µM] | IC50 [7] [µM] | IC50 [8] [µM] | IC50 [9] [µM] | further results
Nc1nc(N)c2cc(CSC(=S)N3CCN(c4ccc(C(F)(F)F)cc4)CC3)ccc2n1 | 7.4 | – | – | – | – | IC50 [2]: > 20 µM; IC50 [3]: > 20 µM; IC50 [4]: > 20 µM; IC50 [5]: > 20 µM
Nc1nc(N)c2cc(CSC(=S)N3CCN(c4ccc(Cl)c(Cl)c4)CC3)ccc2n1 | 2.37 | 6.68 | 2.94 | 3.06 | 3.48 | –
Nc1nc(N)c2cc(CSC(=S)N3CCN(C4CCCCC4)CC3)ccc2n1 | 6.8 | 8.4 | 4.71 | 5.96 | 4.05 | –
Nc1nc(N)c2cc(CSC(=S)N3CCN(c4ccccn4)CC3)ccc2n1 | 5.11 | 5.96 | 3.96 | 5.09 | 6.2 | –
Nc1nc(N)c2cc(CSC(=S)N3CCN(c4ccccc4F)CC3)ccc2n1 | 4.84 | – | 6.46 | 6.66 | 5.42 | –
Nc1nc(N)c2cc(CSC(=S)N3CCN(c4ncccn4)CC3)ccc2n1 | 4.19 | 5.84 | 4.01 | 4.36 | 4.72 | –
COc1ccc(N2CCN(C(=S)SCc3ccc4nc(N)nc(N)c4c3)CC2)cc1 | 1.58 | 2.27 | 1.59 | 1.66 | 1.77 | Ratio [10]: 0.76; IC50 [11]: 5.96 µM; inhibition [12]: 24%; Activity [13]: Active; Activity [14]: 52.36%; Activity [15]: 33.34%; Activity [16]: 14.29%; inhibition [17]: 15.2%
CN1CCN(C(=S)SCc2ccc3nc(N)nc(N)c3c2)CC1 | – | – | 9.2 | – | – | IC50 [18]: > 20 µM; IC50 [3]: > 20 µM; IC50 [4]: > 20 µM; IC50 [5]: > 20 µM
CC[C@@]1(O)C(=O)OCc2c1cc1n(c2=O)Cc2cc3ccccc3nc2-1 [CAMPTOTHECIN] | – | – | – | – | – | Ratio [10]: 0.64
Nc1nc(N)c2cc(CSC(=S)N3CCN(c4ccc(O)cc4)CC3)ccc2n1 | 5.09 | 5.98 | 4.21 | 5.18 | – | IC50 [4]: > 20 µM
Nc1nc(N)c2cc(CSC(=S)N3CCN(c4ccc(F)cc4)CC3)ccc2n1 | 1.92 | 3.27 | 2.04 | 1.84 | 2.05 | Ratio [10]: 0.45; IC50 [11]: 2.11 µM; inhibition [12]: 35%; Activity [13]: Active; Activity [14]: 46.63%; Activity [15]: 39.22%; Activity [16]: 14.15%; inhibition [17]: 19.9%
O=c1[nH]cc(F)c(=O)[nH]1 [FLUOROURACIL] | 32.2 | 5.53 | 3.52 | 43.7 | 24.5 | Activity [13]: inactive; Activity [14]: 45.44%; Activity [15]: 47.75%; Activity [16]: 6.81%
Nc1nc(N)c2cc(CSC(=S)N3CCN(c4ccc([N+](=O)[O-])cc4)CC3)ccc2n1 | 1.47 | 4.68 | 1.91 | 1.66 | 3.32 | Ratio [10]: 0.67; IC50 [11]: 1.61 µM; inhibition [12]: 29%; Activity [13]: Active; Activity [14]: 44.74%; Activity [15]: 39.46%; Activity [16]: 15.8%; inhibition [17]: 14.1%
Nc1nc(N)c2cc(CSC(=S)N3CCN(c4ccc(Cl)cc4)CC3)ccc2n1 | 4.88 | 7.38 | 5.21 | 6.99 | 7.48 | –
Cc1ccc(N2CCN(C(=S)SCc3ccc4nc(N)nc(N)c4c3)CC2)c(C)c1 | 3.12 | 4.07 | 3 | 3.19 | 2.97 | –
Cc1nc(=O)c2cc(CN(C)c3ccc(C(=O)N[C@@H](CCC(=O)O)C(=O)O)s3)ccc2[nH]1 | – | – | – | – | – | inhibition [19]: 94.2%
Nc1nc(N)c2cc(CSC(=S)N3CCN(Cc4ccccc4)CC3)ccc2n1 | 8.46 | 4.91 | 3.31 | 8.35 | 8.49 | –
CC(=O)c1ccc(N2CCN(C(=S)SCc3ccc4nc(N)nc(N)c4c3)CC2)cc1 | 2.49 | 8.26 | 2.55 | 2.04 | 2.28 | –
Cc1ccccc1N1CCN(C(=S)SCc2ccc3nc(N)nc(N)c3c2)CC1 | 4.23 | 11.8 | 3.92 | – | 2.95 | –
Nc1nc(N)c2cc(CSC(=S)N3CCN(c4ccccc4[N+](=O)[O-])CC3)ccc2n1 | 4.35 | 5.52 | 4.36 | 4.88 | 4.31 | –
Cc1ccc(N2CCN(C(=S)SCc3ccc4nc(N)nc(N)c4c3)CC2)cc1 | 2.48 | 5.51 | 2.19 | 2.13 | 3.02 | –
Nc1nc(N)c2cc(CSC(=S)N3CCN(c4ccccc4)CC3)ccc2n1 | 2.95 | 4.12 | 2.97 | 2.84 | 2.76 | –
Nc1nc(N)c2cc(CSC(=S)N3CCN(c4ccc(F)cc4F)CC3)ccc2n1 | 3.67 | 5.15 | 5.12 | 3.8 | 5.02 | –
Nc1nc(N)c2cc(CSC(=S)N3CCN(c4ccccc4Cl)CC3)ccc2n1 | 3.19 | 5.49 | 3.61 | 4.05 | 3.9 | –
